Experiments:
NcCAR [1] = molecular target: T1, NcCAR (Neurospora crassa, UniProt Q7RW48); assay: spectrophotometric NADPH depletion assay, […] nm, initial rates; format: biochemical; settings: apparent, ATP, MgCl2, MES buffer pH 6.0, 28 °C, 5% v/v DMSO
T1 construct: gene NCU05000; full length, codon-optimized gene, N-terminal TEV-cleavable His-tag (removed for kinetics), pETDUET1, co-expressed with E. coli phosphopantetheinyl transferase (CAQ31055.1) in E. coli BL21 (DE3) Star; 120 kDa

NcCAR [2] = molecular target: T1, NcCAR; assay: time-resolved […] NMR of cinnamic acid reduction; relief of inhibition by pyrophosphatase; format: biochemical; settings: co-product inhibition, inferred, ATP, NADPH, MgCl2, Tris-HCl pH 7.5
O=C(O)c1ccc2c(c1)OCO2 = assay: purified protein; format: biochemical, Neurospora crassa; settings: apparent, ATP, NADPH, MgCl2, MES buffer pH 6.0, 28 °C, substrate in water with equimolar KOH

T1 sequence (Q7RW48 whole entry): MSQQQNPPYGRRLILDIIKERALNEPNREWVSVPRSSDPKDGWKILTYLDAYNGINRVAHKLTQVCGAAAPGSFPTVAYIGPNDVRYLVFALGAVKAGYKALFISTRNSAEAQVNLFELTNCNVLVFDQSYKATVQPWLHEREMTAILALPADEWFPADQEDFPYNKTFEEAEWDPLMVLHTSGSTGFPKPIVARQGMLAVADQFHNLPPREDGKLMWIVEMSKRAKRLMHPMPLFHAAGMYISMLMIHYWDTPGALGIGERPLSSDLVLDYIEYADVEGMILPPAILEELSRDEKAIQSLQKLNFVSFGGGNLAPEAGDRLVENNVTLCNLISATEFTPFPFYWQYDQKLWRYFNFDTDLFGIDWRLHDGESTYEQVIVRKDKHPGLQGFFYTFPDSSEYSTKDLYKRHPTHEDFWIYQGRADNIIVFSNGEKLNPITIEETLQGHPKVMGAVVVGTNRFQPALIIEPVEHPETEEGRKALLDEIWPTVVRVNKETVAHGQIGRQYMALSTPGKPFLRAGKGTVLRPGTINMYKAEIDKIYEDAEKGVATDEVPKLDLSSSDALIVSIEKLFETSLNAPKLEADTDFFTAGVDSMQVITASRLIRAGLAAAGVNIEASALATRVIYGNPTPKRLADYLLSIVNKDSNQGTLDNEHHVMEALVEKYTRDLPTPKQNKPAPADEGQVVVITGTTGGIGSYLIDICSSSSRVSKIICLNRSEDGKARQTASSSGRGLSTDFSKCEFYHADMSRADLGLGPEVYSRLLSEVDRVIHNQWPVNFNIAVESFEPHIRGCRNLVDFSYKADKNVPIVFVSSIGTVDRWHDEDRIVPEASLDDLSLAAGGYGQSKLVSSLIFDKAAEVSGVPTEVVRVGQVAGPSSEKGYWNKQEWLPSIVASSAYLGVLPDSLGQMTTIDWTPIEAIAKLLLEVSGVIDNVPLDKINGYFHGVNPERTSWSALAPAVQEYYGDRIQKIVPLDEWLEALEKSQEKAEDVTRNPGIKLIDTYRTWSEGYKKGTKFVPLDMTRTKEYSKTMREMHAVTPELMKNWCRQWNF

O=C(O)/C=C/c1ccccc1 [1a, cinnamic acid]
Km (NcCAR [1]): 445 ± 50 µM

O=P(O)(O)OP(=O)(O)O [pyrophosphate]
time-resolved 31P NMR of cinnamic acid reduction; relief of inhibition by pyroph (NcCAR [2]): these results indicate the inhibition of NcCAR by the co‐product pyrophosphate

NcCAR (Neurospora crassa OR74A)
Km (O=C(O)c1ccc2c(c1)OCO2): 173 ± 22 µM
kcat (O=C(O)c1ccc2c(c1)OCO2): 7.46 s⁻¹
